Results published in US20040259096A1, “Receptor capture assay” (priority 2001, published 2004).

Experiments:
[1] = system: Ah receptor; experiment: Receptor capture assay employing anti-ARNT magnetic microparticles; assay type: biochemical; conditions: 1 μl of 1 nM beta-naphthoflavone
Description: Activation of the Ah receptor with dose was performed in a microtiter strip containing 50 μl of Ah receptor preparation, 1 μl of 200 μg/ml biotinylated ARNT, and 1 μl of 1 nM beta-naphthoflavone and incubated for 1 hr at 30° C. To minimize non-specific interactions, 1-2 μg of salmon sperm DNA was added to the activated complex, along with NaCl to a final concentration of 60 mM. After 10 in room temperature, the nucleic acid-tracer (50 fmole) was added, and the reaction allowed to incubate for an additional 10 min at room temperature. Five μl of a 10% solution of microparticles coated with anti-ARNT antibody was added to each well and incubated for 30 min at room temperature on a Wallac microtiter plate shaker. The wells were washed using a using a LifeSep 96P (Dexter, Elk Grove Village, Ill.) magnet designed for separating magnetic particles in a microtiter plate format The strip was placed on the magnetic separator for three minutes. The beads had migrated to the side of the well by this time and the supernatant was removed by aspiration. The beads were washed four additional times with 150 μl of Wash Buffer B. The beads were captured, supernatant removed, and resuspended in the PCR reaction mix and amplified as in Example 2, B. The amplified product was analyzed by gel electrophoresis.

[2] = system: Ah receptor; experiment: Detecting activated Ah receptor in nuclear extracts of treated Hepa 1c1c7 cells; assay type: cell-based, murine; conditions: Hepa 1c1c7 cells treated with 10 μM BNF for 1 hour
Description: Hepa 1c1c7 cells were grown until nearly confluent in Dulbecco's modified Eagle's medium and 8% fetal bovine serum. The cells were treated with 10 μM beta-naphthoflavone (BNF) in DMSO for 1 hour. The cells were then harvested after two washes with ice-cold PBS by centrifugation at 1000×g. The cells were then suspended in 5 packed cell pellet volumes of 10 mM Hepes, pH 7.5 and allowed to stand for 10 min.
The suspended cells were again collected by centrifugation and resuspended in two packed cell pellet volumes of 25 mM Hepes, pH 7.5, 3 mM MgCl2, 1 mM DTT and then lysed with 10 strokes of a Kontes all glass Dounce homogenizer (B type pestle). The resulting homogenate was checked microscopically to confirm cell lysis and then centrifuged for 10 min at 1000×g to pellet the nuclei.
The nuclear extract was prepared as follows. The nuclei were resuspended and incubated for 30 min in 25 mM Hepes, pH 7.5, 3 mM MgCl2, 1 mM DTT containing 0.4 M KCl. The suspension was occasionally vortexed during the 30 min incubation and centrifuged in a microfuge at high speed. Glycerol was added to the supernatant to a 10% concentration. The nuclear extract was diluted to lower the salt concentration prior to testing. The diluent was Hepa 1c1c7 cell extract that was previously boiled in order to inactivate protein factors and cooled to room temperature. […]

[3] = system: AhR; experiment: Receptor capture assay, real-time PCR, rodent cytosol as source of AhR; assay type: biochemical; conditions: TCDD 625 ppt
[4] = molecular target: T1, AhR (Homo sapiens, UniProt P35869); conditions: Van den Berg et al., 1998; cited from earlier work
T1 sequence (P35869 11-848): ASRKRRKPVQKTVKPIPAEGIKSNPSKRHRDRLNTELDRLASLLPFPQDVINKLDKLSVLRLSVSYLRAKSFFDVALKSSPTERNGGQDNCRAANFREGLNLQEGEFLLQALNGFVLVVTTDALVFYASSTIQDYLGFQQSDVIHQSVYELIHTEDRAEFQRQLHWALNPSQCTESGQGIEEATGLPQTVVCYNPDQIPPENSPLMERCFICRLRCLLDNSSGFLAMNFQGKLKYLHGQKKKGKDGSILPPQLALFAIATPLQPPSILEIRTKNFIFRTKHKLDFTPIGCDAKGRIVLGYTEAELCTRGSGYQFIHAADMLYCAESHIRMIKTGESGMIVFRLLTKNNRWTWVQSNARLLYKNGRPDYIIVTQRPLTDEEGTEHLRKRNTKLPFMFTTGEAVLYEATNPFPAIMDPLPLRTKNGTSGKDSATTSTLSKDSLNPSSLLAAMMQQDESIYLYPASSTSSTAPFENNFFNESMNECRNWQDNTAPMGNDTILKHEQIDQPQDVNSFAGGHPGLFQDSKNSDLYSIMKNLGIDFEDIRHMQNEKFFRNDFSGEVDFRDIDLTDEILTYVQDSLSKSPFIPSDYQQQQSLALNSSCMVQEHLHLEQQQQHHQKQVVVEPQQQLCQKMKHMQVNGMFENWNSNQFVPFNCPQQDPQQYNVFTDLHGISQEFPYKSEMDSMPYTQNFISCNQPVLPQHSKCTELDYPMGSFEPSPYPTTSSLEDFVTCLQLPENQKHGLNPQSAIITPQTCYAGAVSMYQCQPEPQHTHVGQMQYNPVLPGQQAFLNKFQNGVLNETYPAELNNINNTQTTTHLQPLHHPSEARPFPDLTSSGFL

SMILES | amplified DNA over DMSO vehicle controls (gel electrophoresis) [1] | PCR-amplified DNA over nuclear extracts from DMSO-treated cells [2] | Ct Values [3] | toxic equivalency factor (TEF) value [4]
O=c1cc(-c2ccccc2)oc2ccc3ccccc3c12 [BNF, beta-naphthoflavone] | significant increase in DNA | significant and reproducible increase in PCR-amplified DNA | – | –
Clc1cc2c(cc1Cl)Oc1cc(Cl)c(Cl)cc1O2 [TCDD, 2,3,7,8-tetrachlorodibenzo-p-dioxin] | – | – | 22.23 | 1
